# Laboratory results from PMC6324813, “Biological evaluation of isoflavonoids from Genista halacsyi using estrogen-target cells: Activities of glucosides compared to aglycones” (PLoS ONE, 2019).
# Read-outs that look alike come from different tables or passages of the source.
# What was measured:
# [1] = molecular target: T1, ERα (Homo sapiens, UniProt P03372); assay: ERE-dependent luciferase gene transcription in MCF-7:D5L cells; type: cell-based; parameters: MCF-7:D5L cells, a clone of MCF-7 cells stably transfected with an Estrogen Response Element (ERE)-endowed reporter plasmid; endogenous in cells; host or cells: MCF-7:D5L (MCF-7 clone carrying pERE-Gl-Luciferase); settings: for Induction of ERE-dependent Luciferase Transcription (MCF-7:D5L cells) AUC (%): % of AUC of luciferase response of archetypal 3, 4, 5 or 8 up to 0.3, 10, 1.0 and 3.0 μM; for Induction of ERE-dependent Luciferase Transcription (MCF-7:D5L cells) EC25E2: concentration required to achieve 25% of the effect of 0.1 nM E2
# T1 sequence (P03372 1-595): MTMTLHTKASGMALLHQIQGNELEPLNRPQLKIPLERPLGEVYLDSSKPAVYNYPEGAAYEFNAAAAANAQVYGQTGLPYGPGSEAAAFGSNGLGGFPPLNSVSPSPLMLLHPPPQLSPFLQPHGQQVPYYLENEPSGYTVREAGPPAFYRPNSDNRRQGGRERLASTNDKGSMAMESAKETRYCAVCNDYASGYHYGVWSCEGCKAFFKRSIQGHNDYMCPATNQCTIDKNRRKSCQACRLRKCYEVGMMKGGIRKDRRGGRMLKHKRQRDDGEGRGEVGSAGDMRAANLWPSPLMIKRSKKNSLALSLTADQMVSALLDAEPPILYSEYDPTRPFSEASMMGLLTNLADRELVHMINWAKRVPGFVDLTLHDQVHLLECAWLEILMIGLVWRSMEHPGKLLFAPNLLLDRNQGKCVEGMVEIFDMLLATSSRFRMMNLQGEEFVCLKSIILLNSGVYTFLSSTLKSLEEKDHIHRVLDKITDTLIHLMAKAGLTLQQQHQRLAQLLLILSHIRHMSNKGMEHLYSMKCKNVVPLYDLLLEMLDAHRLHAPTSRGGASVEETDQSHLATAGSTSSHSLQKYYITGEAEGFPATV
# Method: (§1) Assessment of ER/ERE-dependent luciferase gene transcription in MCF-7:D5L (express ERα) and HEK:ERβ cells (express ERβ) and determination of ER transcriptional agonism was carried as already described. Briefly, the cells were plated in 96-well plates at a density of 12,000 cells per well in phenol-red-free MEM (MCF-7:D5L cells) or phenol-red-free DMEM (HEK:ERβ cells) supplemented with 1 μg/mL insulin and 5% DCC-FBS. […] The AUC of the isoflavonoids of each group were then expressed as % of the AUC of the respective archetypal isoflavone. Since AUC data combine the efficacy as well as the potency of cell response into a single parameter, the %AUC data were considered here as a more reliable measure of relative ER/ERE-dependent luciferase expression of the test compounds.
# [2] = test system: MCF-7 cells; assay: MCF-7 cell proliferation (MTT); type: cell-based, human; settings: for Induction of cell proliferation (MCF-7 cells) Agonism at 1μΜ, class: compounds 1 μM, 72 h; for activation at 1 µM: Homo sapiens, MCF7, 72 h, read-out: Induction of cell proliferation (MCF-7 cells) Agonism at 1μΜ (% of 0.1nM E2); for MCF-7 cell proliferation agonist effect compared to the effect of 0.1 nM estradiol: isoflavonoids 1 μM, statistically significant effects
# Method: Test compound effects on the proliferation of MCF-7 and MDA-MB-231 cells were assessed as previously described.
# [3] = molecular target: T1, ERα; assay: ER binding competitor assay (fluorescent estrogen ES2), ERα; parameters: purchased Invitrogen; settings: RBA = (IC50 estradiol/IC50 compound) × 100; ES2 1 nM; estradiol set equal to 100
# [4] = molecular target: T2, ERβ (Homo sapiens, UniProt Q92731); assay: ERE-dependent luciferase gene transcription in HEK:ERβ cells; type: cell-based; parameters: expressed in transfected cells; host or cells: HEK-293 (HEK:ERβ clone, with pERE-tk-Luciferase)
# T2 sequence (Q92731 whole entry): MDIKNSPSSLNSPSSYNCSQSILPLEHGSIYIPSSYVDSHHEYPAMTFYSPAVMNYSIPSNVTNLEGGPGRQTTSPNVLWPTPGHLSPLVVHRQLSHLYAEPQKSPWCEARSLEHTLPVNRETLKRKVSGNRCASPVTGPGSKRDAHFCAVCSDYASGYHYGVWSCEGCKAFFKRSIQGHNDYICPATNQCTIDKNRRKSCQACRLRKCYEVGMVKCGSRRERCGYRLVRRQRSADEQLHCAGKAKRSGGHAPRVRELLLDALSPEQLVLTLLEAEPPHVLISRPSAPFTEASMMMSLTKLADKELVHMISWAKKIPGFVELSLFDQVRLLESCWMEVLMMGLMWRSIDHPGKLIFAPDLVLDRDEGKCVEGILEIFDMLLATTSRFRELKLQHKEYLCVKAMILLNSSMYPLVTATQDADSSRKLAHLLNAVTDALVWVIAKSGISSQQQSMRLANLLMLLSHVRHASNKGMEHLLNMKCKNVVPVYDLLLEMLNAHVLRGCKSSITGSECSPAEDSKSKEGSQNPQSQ
# Method: as §1
# [5] = molecular target: T2, ERβ; assay: ER binding competitor assay (fluorescent estrogen ES2), ERβ; parameters: purchased Invitrogen; settings: for RBAβ / RBAα: ERβ-binding selectivity; for RBAβ: RBA = (IC50 estradiol/IC50 compound) × 100, ES2 1 nM, estradiol set equal to 100
# [6] = test system: Ishikawa cells; assay: Induction of AlkP expression in Ishikawa cells; type: cell-based, human; settings: for Induction of Alkaline Phosphatase Expression (Ishikawa cells) AUC (%): % of AUC of luciferase response of archetypal 3, 4, 5 or 8 up to 0.3, 10, 1.0 and 3.0 μM; for Ratio of AUC (AlkP / Lucif): AUCAlkP / AUCluciferase; for EC (25% of 0.1 nM E2 effect) / EC50: Homo sapiens, Ishikawa; for EC (25% of 0.1 nM E2 effect) / Induction of AlkP expression (Ishikawa cells) Agonism at 1μΜ, class: 72 h; for EC (25% of 0.1 nM E2 effect): concentration required to achieve 25% of the effect of 0.1 nM E2, read-out: Induction of Alkaline Phosphatase Expression (Ishikawa cells) EC25E2; for EC50: read-out: Induction of Alkaline Phosphatase Expression (Ishikawa cells) EC50E2; for Induction of AlkP expression (Ishikawa cells) Agonism at 1μΜ, class: compounds 1 μM
# Method: Induction of AlkP expression of Ishikawa cells is considered as a reliable in vitro measure of estrogenic activity. Assessment of AlkP expression in Ishikawa cells was carried as already described. Briefly, the cells were plated in 96-well plates at a density of 12,000 cells per well in phenol-red-free MEM supplemented with 1 μg/mL insulin and 5% DCC-FBS. […] Data on the dependence of AlkP activity on isoflavonoid concentration were curve fitted using SigmaPlot10 (SPSS Inc) and the numerical data of curve fitting were used to determine AUC as described above, using for the calculation of AUC of a particular AlkP response the very same concentration used for the respective luciferase response. The AUC of AlkP responses of the isoflavonoids of a group were expressed as % of the AUC of the luciferase response of the respective archetypal isoflavone.
# [7] = test system: HT22 cells; settings: read-out: half maximal concentration for HT22 oxytosis inhibition; cited from earlier work
# [8] = concentration required to achieve 50% of the effect of 0.1 nM E2, read-out: Induction of ERE-dependent Luciferase Transcription (MCF-7:D5L cells) EC50E2
# [9] = concentration required to achieve 50% of the effect of 0.1 nM E2
# [10] = 18 h; read-out: Induction of luciferase gene transcription through ERβ, HEK:ERβ cells, Agonism at 1μΜ (% of 0.1nM E2)
# [11] = isoflavonoids 1 μM; statistically significant effects
Structure (SMILES),Induction of ERE-dependent Luciferase Transcription (MCF-7:D5L cells) AUC (%) [1],"Induction of luciferase gene transcription, MCF-7:D5L cells, Agonism at 1μΜ, class ([1]; compounds 1 μM, 18 h)",Induction of ERE-dependent Luciferase Transcription (MCF-7:D5L cells) EC25E2 [1],"EC50 [1, 8]","Induction of cell proliferation (MCF-7 cells) Agonism at 1μΜ, class [2]",RBAβ / RBAα [5],RBAβ [5],Induction of Alkaline Phosphatase Expression (Ishikawa cells) AUC (%) [6],Ratio of AUC (AlkP / Lucif) [6],EC (25% of 0.1 nM E2 effect) [6],"EC50 [6, 9]","Induction of AlkP expression (Ishikawa cells) Agonism at 1μΜ, class [6]",also measured
"COc1ccc(-c2coc3c(OC)c(O)ccc3c2=O)cc1 [Compound 2, 8-methoxyformononetin]",0.7±0.1 %,Marginal (⩽10%),>30 µM,> 30 µM,Marginal (⩽10%),2.50,0.15 ± 0.04,0.5±0.2 %,0.71±0.15,> 30 µM,> 30 µM,Marginal (⩽10%),"RBAα [3]: 0.06 ± 0.02; Induction of luciferase gene transcription, HEK:ERβ cells, Agonism at 1μΜ, class ([4]; compounds 1 μM; 18 h): Marginal (⩽10%)"
"COc1cc(O)cc2occ(-c3ccc(O)cc3)c(=O)c12 [Compound 4, isoprunetin]",100±14%,Marginal (⩽10%),3.72 ± 0.63 µM,7.32 ± 2.18 µM,,5.00,0.15 ± 0.05,94±16%,0.94±0.03,3.9 ± 0.19 µM,7.94 ± 2.28 µM,Marginal (⩽10%),"activation at 1 µM [2]: 19 ± 6%; MCF-7 cell proliferation agonist effect compared to the effect of 0.1 nM estradiol [2]: lower than; activation at 1 µM [4, 10]: 27 ± 5%; ERβ-dependent gene transcription agonist effect compared to the effect of 0.1 nM estradiol [4, 11]: lower than"
"COc1cc(-c2coc3cc(O)cc(OC)c3c2=O)ccc1O [Compound 6, 3΄-methoxyisoprunetin]",289±14 %,,0.98 ± 0.07 µM,1.57 ± 0.24 µM,,4.50,,182±8 %,0.63±0.01,1.6 ± 0.05 µM,2.61 ± 0.29 µM,Marginal (⩽10%),"Induction of luciferase gene transcription through ERα, MCF-7:D5L cells, Agonism at 1μΜ (% of 0.1nM E2) ([1]; compounds 1 μM, estradiol 0.1 nM, 18 h): 22 ± 5 (Weak) ^* % of 0.1nM E2; ERα-dependent gene transcription agonist effect compared to the effect of 0.1 nM estradiol ([1]; isoflavonoids 1 μM, statistically significant effects): lower than; activation at 1 µM [2]: 32 ± 3%; MCF-7 cell proliferation agonist effect compared to the effect of 0.1 nM estradiol [2]: lower than; RBAα [3]: 0.14 ± 0.04; activation at 1 µM [4, 10]: 81 ± 5%; AlkP response lower than ERα-transcriptional response (relative AUC ratios) [6]: ~ 30%"
"COc1cc(OC2OC(CO)C(O)C(O)C2O)cc2occ(-c3ccc(O)cc3)c(=O)c12 (centres unmarked) [Compound 10, 7-O-glucopyranosyl-isoprunetin]",69±5%,Marginal (⩽10%),6.50 ± 1.10 µM,29.8 ± 5.2 µM,Marginal (⩽10%),1.50,,109±8%,1.58±0.12,3.48 ± 0.51 µM,8.23 ± 1.24 µM,Marginal (⩽10%),"Induction of luciferase gene transcription, HEK:ERβ cells, Agonism at 1μΜ, class ([4]; compounds 1 μM; 18 h): Marginal (⩽10%); AlkP response higher than ERα-transcriptional response (relative AUC ratios) [6]: ~ 40%"
"O=c1c(-c2ccc(OC3O[C@H](CO)[C@@H](O)[C@H](O)[C@H]3O)cc2)coc2c(C3O[C@H](CO)[C@@H](O)[C@H](O)[C@H]3O)c(O)cc(O)c12 (some centres unmarked) [Compound 14, 8-C,4΄-O-diglucopyranosyl-genistein]",30±13 %,Marginal (⩽10%),3.57 ± 0.58 µM,,Marginal (⩽10%),2.50,0.05 ± 0.02,46±10 %,1.53±0.02,,,Marginal (⩽10%),"EC50 [1]: 7.72 ± 3.08 µM; activation at 1 µM ([4]; 18 h, read-out: Induction of luciferase gene transcription through ERβ, HEK:ERβ cells, Agonism at 1μΜ (% of 0.1nM E2)): 18 ± 1%; ERβ-dependent gene transcription agonist effect compared to the effect of 0.1 nM estradiol [4, 11]: lower than; AlkP response higher than ERα-transcriptional response (relative AUC ratios) [6]: ~ 40%; EC50 [6]: 6.42 ± 1.52 µM"
O=c1c(O)c(-c2ccc(O)c(O)c2)oc2cc(O)ccc12 [fisetin],,,,,,,,,,,,,EC50 [7]: ≥ 3 µM
Oc1ccc(/C=C/c2cc(O)cc(O)c2)cc1 [resveratrol],,,,,,,,,,,,,EC50 [7]: ≥ 3 µM
